Patent US12568967B2, “Compositions comprising pyridine carboxylate herbicides with synthetic auxin herbicides or auxin transport inhibitors” (priority 2018, dated 2026)

How the values were obtained:
[1] = test system: Viola tricolor (wild pansy, VIOTR); experiment: Greenhouse postemergence trial VIOTR; conditions: for % visual injury, Obs: VIOTR, 140 g/ha alone;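 for all read-outs here: greenhouse plants sprayed at second to third true leaf stage, injury rated visually after 20-22 d against solvent-blank sprayed controls, 0 meaning no injury and 100 complete kill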
[2] = test system: Brassica napus (winter rape, BRSNW); experiment: Greenhouse postemergence trial BRSNW; format: in vivo; conditions: Brassica napus, post-emergence, read-out: % visual injury Obs
[3] = test system: Kochia scoparia (kochia, KCHSC); experiment: Greenhouse postemergence trial KCHSC; format: in vivo; conditions: for % visual injury, Obs: 140 g/ha alone
[4] = test system: Glycine max (volunteer soybean, GLXMA); experiment: Greenhouse postemergence trial GLXMA; format: in vivo; conditions: GLXMA; 140 g/ha alone
Description: (§1) Seeds of the desired test plant species were planted in a 90:10% v/v (volume/volume) mixture of PRO-MIX® BX (Premier Tech Horticulture, Quakertown, PA, USA) and PROFILE® GREENS GRADE™ (Profile Products LLC, Buffalo Grove, IL, USA) planting mixture, which typically has a pH of 5.2 to 6.2 and an organic matter content of at least 50 percent, in plastic pots with a surface area of 103.2 square centimeters (cm^2). […] The plants were grown for 7-36 days (d) in a greenhouse with an approximate 14-hour (h) photo-period which was maintained at about 23° C. during the day and 22° C. during the night. Nutrients and water were added on a regular basis and supplemental lighting was provided with overhead metal halide 1000-Watt lamps as necessary. The plants were employed for testing when they reached the second or third true leaf stage.
(§2) Emulsifiable concentrates of each of each pyridine carboxylate herbicide (Compound A or Compound B) were prepared at 100 grams acid equivalent per liter (g ae/L). The emulsifiable concentrates also included a safener, cloquintocet-mexyl, at 120 grams active ingredient per liter (g ai/L), unless otherwise noted below. An aliquot of each emulsifiable concentrate was placed in a 25 mL glass vial and diluted with an aqueous mixture of 1.25% (v/v) ACTIROB® B esterified rapeseed oil (Bayer Crop Science, Research Triangle Park, NC, USA) or MSO® Concentrate with LECI-TECH® methylated soybean oil (Loveland Products, Loveland, CO, USA) to obtain concentrated stock solutions at the highest application rate for each herbicide, based upon a 12 milliliter (mL) application volume at a rate of 187 liters per hectare (L/ha). The concentrated stock solutions were further diluted with an aqueous mixture of 1.25% v/v ACTIROB® B or MSO® Concentrate with LECI-TECH® to obtain stock solutions at reduced application rates for each herbicide. Spray solutions of the herbicide combinations (Compound A or Compound B plus synthetic auxin herbicide or auxin transport inhibitor) were prepared by adding weighed amounts or aliquots of the synthetic auxin herbicide or auxin transport inhibitor to the stock solutions of Compound A or Compound B to form 12-mL spray solutions in two-way combinations.
(§3) The spray solutions were applied to the plant material with an overhead Mandel track sprayer equipped with 8002E nozzles calibrated to deliver 187 L/ha over an application area of 0.503 square meters (m^2) at a spray height of 18 inches (43 centimeters (cm)) above the average plant canopy. Control plants were sprayed in the same manner with the solvent blank. All pyridine carboxylate herbicide (component a) application rates are given as “g ae/ha” and all synthetic auxin herbicide or auxin transport inhibitor (component b) application rates are given as “g ai/ha.”
(§4) The treated plants and control plants were placed in a greenhouse as described above and watered by sub-irrigation to prevent wash-off of the test compounds. After 20-22 d, the condition of the test plants as compared with that of the control plants was determined visually and scored on a scale of 0 to 100 percent where 0 corresponds to no injury and 100 corresponds to complete kill.

[5] = test system: Cirsium arvense (Canadian thistle, CIRAR); experiment: Greenhouse postemergence trial CIRAR; format: in vivo; conditions: for % visual injury, Obs: 140 g/ha alone
[6] = test system: Alopecurus myosuroides (blackgrass, ALOMY); experiment: Greenhouse postemergence trial ALOMY; format: in vivo; conditions: ALOMY; 140 g/ha alone
Description: as §1
(§5) Emulsifiable concentrates of each of each pyridine carboxylate herbicide (Compound A or Compound B) were prepared at 100 grams acid equivalent per liter (g ae/L). The emulsifiable concentrates also included a safener, cloquintocet-mexyl, at 120 grams active ingredient per liter (g ai/L), unless otherwise noted below. An aliquot of each emulsifiable concentrate was placed in a 25 mL glass vial and diluted with an aqueous mixture of 1.25% (v/v) ACTIROB® B esterified rapeseed oil (Bayer Crop Science, Research Triangle Park, NC, USA) or MSO® Concentrate with LECI-TECH® methylated soybean oil (Loveland Products, Loveland, CO, USA) to obtain concentrated stock solutions at the highest application rate for each herbicide, based upon a 12 milliliter (mL) application volume at a rate of 187 liters per hectare (L/ha). The concentrated stock solutions were further diluted with an aqueous mixture of 1.25% v/v ACTIROB® B or MSO® Concentrate with LECI-TECH® to obtain stock solutions at reduced application rates for each herbicide. Spray solutions of the herbicide combinations (Compound A or Compound B plus synthetic auxin herbicide or auxin transport inhibitor) were prepared by adding weighed amounts or aliquots of the synthetic auxin herbicide or auxin transport inhibitor to the stock solutions of Compound A or Compound B to form 12-mL spray solutions in two-way combinations. […]
as §4

[7] = test system: Abutilon theophrasti (velvetleaf, ABUTH); experiment: Greenhouse postemergence trial ABUTH; format: in vivo; conditions: for % visual injury, Obs: ABUTH, 140 g/ha alone
Description: as §1, §2, §3, §4

[8] = test system: Lolium multiflorum (Italian ryegrass, LOLMU); experiment: Greenhouse postemergence trial LOLMU; format: in vivo; conditions: for % visual injury, Obs: LOLMU, 140 g/ha alone
Description: as §1, §2, §3, §4

[9] = test system: Digitaria sanguinalis (large crabgrass, DIGSA); experiment: Greenhouse postemergence trial DIGSA; format: in vivo; conditions: for % visual injury, Obs: DIGSA, 140 g/ha alone
Description: as §1, §2, §3, §4

[10] = test system: Polygonum convolvulus (wild buckwheat, POLCO); experiment: Greenhouse postemergence trial POLCO; format: in vivo; conditions: for % visual injury, Obs: 140 g/ha alone
[11] = test system: Ipomoea hederacea (ivyleaf morningglory, IPOHE); experiment: Greenhouse postemergence trial IPOHE; format: in vivo; conditions: IPOHE; 140 g/ha alone
Description: as §1, §2, §3, §4

[12] = test system: Stellaria media (chickweed, STEME); experiment: Greenhouse postemergence trial STEME; format: in vivo; conditions: for % visual injury, Obs: 140 g/ha alone
Description: as §1, §2, §3, §4

[13] = test system: Helianthus annuus (common sunflower, HELAN); experiment: Greenhouse postemergence trial HELAN; format: in vivo; conditions: HELAN; 140 g/ha alone
Description: as §1, §2, §3, §4

[14] = test system: Sorghum vulgare (grain sorghum, SORVU); experiment: Greenhouse postemergence trial SORVU; format: in vivo; conditions: SORVU; 140 g/ha alone
Description: as §1, §5, §4

[15] = test system: Avena fatua (wild oat, AVEFA); experiment: Greenhouse postemergence trial AVEFA; format: in vivo; conditions: AVEFA; 140 g/ha alone
Description: as §1, §5, §4

[16] = test system: Echinochloa crus-galli (barnyard grass, ECHCG); experiment: Greenhouse postemergence trial ECHCG; format: in vivo; conditions: for % visual injury, Obs: ECHCG, 140 g/ha alone
Description: as §1, §2, §3, §4

[17] = test system: Leptochloa chinensis (Chinese sprangletop, LEFCH); experiment: Greenhouse postemergence trial LEFCH; format: in vivo; conditions: LEFCH; 140 g/ha alone
Description: as §1, §5, §4

[18] = test system: Setaria faberi (giant foxtail, SETFA); experiment: Greenhouse postemergence trial SETFA; format: in vivo; conditions: for % visual injury, Obs: SETFA, 140 g/ha alone
Description: as §1, §2, §3, §4

[19] = test system: Rumex obtusifolius (broad-leaf dock, RUMOB); experiment: Greenhouse postemergence trial RUMOB; format: in vivo; conditions: for % visual injury, Obs: RUMOB, 140 g/ha alone
[20] = test system: Cyperus esculentus (nutsedge, CYPES); experiment: Greenhouse postemergence trial CYPES; format: in vivo; conditions: CYPES; 140 g/ha alone
Description: as §1, §5, §4

[21] = test system: Brassica napus (spring rape, BRSNN); experiment: Greenhouse postemergence trial BRSNN; format: in vivo; conditions: diflufenzopyr 10 g/ha
Description: (§6) The plants were grown for 7-36 days (d) in a greenhouse with an approximate 14-hour (h) photo-period which was maintained at about 23° C. during the day and 22° C. during the night. Nutrients and water were added on a regular basis and supplemental lighting was provided with overhead metal halide 1000-Watt lamps as necessary. The plants were employed for testing when they reached the second or third true leaf stage.
(§7) The emulsifiable concentrates also included a safener, cloquintocet-mexyl, at 120 grams active ingredient per liter (g ai/L), unless otherwise noted below.
(§8) Control plants were sprayed in the same manner with the solvent blank. All pyridine carboxylate herbicide (component a) application rates are given as “g ae/ha” and all synthetic auxin herbicide or auxin transport inhibitor (component b) application rates are given as “g ai/ha.”
as §4

[22] = test system: Oryza sativa (common rice, ORYSA); experiment: Greenhouse postemergence trial ORYSA; format: in vivo; conditions: diflufenzopyr 10 g/ha
Description: as §1
Emulsifiable concentrates of each of each pyridine carboxylate herbicide (Compound A or Compound B) were prepared at 100 grams acid equivalent per liter (g ae/L). […]
as §4

[23] = test system: Salsola kali (Russian thistle, SASKR); experiment: Greenhouse postemergence trial SASKR; format: in vivo; conditions: Salsola kali, post-emergence; SASKR; Halauxifen-methyl 3 g/ha; read-out: % visual injury Obs;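 note: greenhouse plants sprayed at second or third true leaf stage, injury rated by eye after 20-22 d against solvent-blank controls, 0 meaning no injury, 100 complete kill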
[24] = test system: Hordeum vulgare (spring barley, HORVS); format: in vivo
[25] = test system: Anthemis arvensis (field chamomile, ANTAR); experiment: Greenhouse postemergence trial ANTAR; format: in vivo
[26] = test system: Triticum aestivum (winter wheat, TRZAW); experiment: Greenhouse postemergence crop phytotoxicity TRZAW; format: in vivo
[27] = test system: Lamium purpureum (purple deadnettle, LAMPU); experiment: Greenhouse postemergence trial LAMPU
[28] = test system: Veronica persica (bird's-eye speedwell, VERPE); experiment: Greenhouse postemergence trial VERPE; format: in vivo
[29] = test system: Matricaria inodora (false chamomile, MATIN); experiment: Greenhouse postemergence trial MATIN; format: in vivo
[30] = test system: Capsella bursa-pastoris (shepherd's purse, CAPBP); experiment: Greenhouse postemergence trial CAPBP; format: in vivo
[31] = test system: Matricaria chamomilla (wild chamomile, MATCH); experiment: Greenhouse postemergence trial MATCH; format: in vivo; conditions: Matricaria chamomilla, post-emergence; MATCH; Halauxifen-methyl 3 g/ha; read-out: % visual injury Obs;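 note: greenhouse plants sprayed at second to third true leaf stage, injury rated by eye 20-22 d later versus solvent-blank controls on 0–100 scale, 0 no injury, 100 complete kill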
[32] = test system: Viola arvensis (field violet, VIOAR); experiment: Greenhouse postemergence trial VIOAR; format: in vivo
[33] = test system: Sinapis arvensis (wild mustard, SINAR); experiment: Greenhouse postemergence trial SINAR; format: in vivo; conditions: Mutarda arvensis, post-emergence; SINAR; Halauxifen-methyl 3 g/ha; read-out: % visual injury Obs
Description: as §6, §7, §8, §4

[34] = test system: Cyanus segetum (cornflower, CENCY); experiment: Greenhouse postemergence trial CENCY; format: in vivo
[35] = test system: Triticum aestivum (spring wheat, TRZAS); format: in vivo
[36] = test system: Hordeum vulgare (winter barley, HORVW); experiment: Greenhouse postemergence crop phytotoxicity HORVW; format: in vivo
[37] = test system: Veronica hederifolia (ivyleaf speedwell, VERHE); experiment: Greenhouse postemergence trial VERHE; format: in vivo
[38] = test system: Matricaria discoidea (pineapple weed, MATMT); experiment: Greenhouse postemergence trial MATMT; format: in vivo
[39] = test system: Papaver rhoeas (corn poppy, PAPRH); experiment: Greenhouse postemergence trial PAPRH; format: in vivo
[40] = test system: Galium aparine (cleavers, GALAP); experiment: Greenhouse postemergence trial GALAP; format: in vivo; conditions: c1-3 Compound A 7.5/10/15; c4 Halauxifen-methyl 6; c5-7 A 7.5/10/15 + Halauxifen-methyl 6 g/ha
Description: as §1, §2, §3, §4

[41] = test system: Papaver rhoeas (corn poppy), herbicide-resistant (PAPRH-R); experiment: Greenhouse postemergence trial PAPRH-R; format: in vivo
[42] = c1-3 Compound A 7.5/10/15, c4 Halauxifen-methyl 6, c5-7 A 7.5/10/15 + Halauxifen-methyl 6 g/ha

## O=C(O)c1cc(I)cc(I)c1I [2,3,5-TIBA]
[1]
  % visual injury, Obs: 0%
[2]
  plant injury at 140 g/ha: 0%
[3]; KCHSC
  % visual injury, Obs: 0%
[4]
  % visual injury, Obs: 40%
[5]; CIRAR
  % visual injury, Obs: 0%
[6]
  % visual injury, Obs: 0%
[7]
  % visual injury, Obs: 0%
[8]
  % visual injury, Obs: 0%
[9]
  % visual injury, Obs: 0%
[10]; POLCO
  % visual injury, Obs: 0%
[11]
  % visual injury, Obs: 0%
[12]; STEME
  % visual injury, Obs: 0%
[13]
  % visual injury, Obs: 0%
[14]
  % visual injury, Obs: 0%
[15]
  % visual injury, Obs: 0%
[16]
  % visual injury, Obs: 0%
[17]
  % visual injury, Obs: 0%
[18]
  % visual injury, Obs: 0%
[19]
  % visual injury, Obs: 0%
[20]
  % visual injury, Obs: 0%

## C/C(=N\NC(=O)Nc1cc(F)cc(F)c1)c1ncccc1C(=O)O [Diflufenzopyr]
[1]; diflufenzopyr 10 g/ha
  VIOTR Obs (% visual injury): 8%
[3]; diflufenzopyr 10 g/ha
  KCHSC Obs (% visual injury): 10%
[21]
  BRSNN Obs (% visual injury): 70%
[5]; diflufenzopyr 10 g/ha
  CIRAR Obs (% visual injury): 10%
[7]; diflufenzopyr 10 g/ha
  ABUTH Obs (% visual injury): 38%
[8]; diflufenzopyr 10 g/ha
  LOLMU Obs (% visual injury): 8%
[9]; diflufenzopyr 10 g/ha
  DIGSA Obs (% visual injury): 0%
[10]; diflufenzopyr 10 g/ha
  POLCO Obs (% visual injury): 5%
[22]
  ORYSA Obs (% visual injury): 8%
[16]; diflufenzopyr 10 g/ha
  ECHCG Obs (% visual injury): 0%
[18]; diflufenzopyr 10 g/ha
  SETFA Obs (% visual injury): 20%
[19]; diflufenzopyr 10 g/ha
  RUMOB Obs (% visual injury): 8%

## COC(=O)c1nc(-c2ccc(Cl)c(OC)c2F)cc(N)c1Cl [Halauxifen-methyl, halauxifen-methyl, reference compound]
[23]
  pest or weed control at 3 g/ha: 50%
[24]; HORVS, Halauxifen-methyl 3 g/ha
  % visual injury Obs: 0%
[24]; [42]
  % visual injury (crop phytotoxicity): 0%
[25]; Anthemis arvensis, post-emergence, ANTAR, Halauxifen-methyl 3 g/ha, read-out: % visual injury Obs
  pest or weed control at 3 g/ha: 50%
[25]; [42]
  % visual injury: 40%
[1]; Viola tricolor, post-emergence, read-out: % visual injury Obs
  pest or weed control at 3 g/ha: 60%
[1]; [42]
  % visual injury: 10%
[2]; BRSNW, Halauxifen-methyl 3 g/ha
  plant injury at 3 g/ha: 30%
[26]; TRZAW, Halauxifen-methyl 3 g/ha
  % visual injury Obs: 0%
[26]; [42]
  % visual injury (crop phytotoxicity): 0%
[3]; Bassia scoparia, post-emergence, KCHSC, Halauxifen-methyl 3 g/ha, read-out: % visual injury Obs
  pest or weed control at 3 g/ha: 50%
[27]; Lamium purpureum, post-emergence, read-out: % visual injury Obs
  pest or weed control at 3 g/ha: 97%
[27]; [42]
  % visual injury: 85%
[28]; Veronica persica, post-emergence, VERVE, Halauxifen-methyl 3 g/ha, read-out: % visual injury Obs
  pest or weed control at 3 g/ha: 20%
[28]; [42]
  % visual injury: 10%
[5]; Cirsium arvense, post-emergence, CIRAR, Halauxifen-methyl 3 g/ha, read-out: % visual injury Obs
  pest or weed control at 3 g/ha: 65%
[29]; Tripleurospermum inodorum, post-emergence, MATIN, Halauxifen-methyl 3 g/ha, read-out: % visual injury Obs
  pest or weed control at 3 g/ha: 0%
[29]; [42]
  % visual injury: 10%
[30]; Capsella bursa-pastoris, post-emergence, CAPBP, Halauxifen-methyl 3 g/ha, read-out: % visual injury Obs
  pest or weed control at 3 g/ha: 75%
[30]; [42]
  % visual injury: 70%
[31]
  pest or weed control at 3 g/ha: 10%
[10]; Fallopia convolvulus, post-emergence, POLCO, Halauxifen-methyl 3 g/ha, read-out: % visual injury Obs
  pest or weed control at 3 g/ha: 80%
[32]; Viola arvensis, post-emergence, VIOAR, Halauxifen-methyl 3 g/ha, read-out: % visual injury Obs
  pest or weed control at 3 g/ha: 10%
[32]; [42]
  % visual injury: 5%
[12]; Stellaria media, post-emergence, STEME, Halauxifen-methyl 3 g/ha, read-out: % visual injury Obs
  pest or weed control at 3 g/ha: 30%
[12]; [42]
  % visual injury: 65%
[33]
  pest or weed control at 3 g/ha: 70%
[34]; Centaurea cyanus, post-emergence, CENCY, Halauxifen-methyl 3 g/ha, read-out: % visual injury Obs
  pest or weed control at 3 g/ha: 90%
[34]; [42]
  % visual injury: 97%
[35]; TRZAS, Halauxifen-methyl 3 g/ha
  % visual injury Obs: 0%
[35]; [42]
  % visual injury (crop phytotoxicity): 0%
[36]; HORVW, Halauxifen-methyl 3 g/ha
  % visual injury Obs: 0%
[36]; [42]
  % visual injury (crop phytotoxicity): 0%
[37]; Veronica hederifolia, post-emergence, VERHE, Halauxifen-methyl 3 g/ha, read-out: % visual injury Obs
  pest or weed control at 3 g/ha: 10%
[37]; [42]
  % visual injury: 10%
[38]; Matricaria discoidea, post-emergence, MATMT, Halauxifen-methyl 3 g/ha, read-out: % visual injury Obs
  pest or weed control at 3 g/ha: 0%
[38]; [42]
  % visual injury: 65%
[39]; Papaver rhoeas, post-emergence, PAPRH, Halauxifen-methyl 3 g/ha, read-out: % visual injury Obs
  pest or weed control at 3 g/ha: 70%
[39]; [42]
  % visual injury: 70%
[40]
  % visual injury: 95%
[41]; Papaver rhoeas, post-emergence, PAPRH-R, Halauxifen-methyl 3 g/ha, read-out: % visual injury Obs
  pest or weed control at 3 g/ha: 65%
[41]; [42]
  % visual injury: 60%

## O=C(O)c1ccccc1C(=O)Nc1cccc2ccccc12 [Naptalam]
[1]
  % visual injury, Obs: 0%
[2]
  plant injury at 140 g/ha: 0%
[3]; KCHSC
  % visual injury, Obs: 0%
[4]
  % visual injury, Obs: 13%
[5]; CIRAR
  % visual injury, Obs: 0%
[6]
  % visual injury, Obs: 0%
[7]
  % visual injury, Obs: 0%
[8]
  % visual injury, Obs: 0%
[9]
  % visual injury, Obs: 0%
[10]; POLCO
  % visual injury, Obs: 0%
[11]
  % visual injury, Obs: 0%
[12]; STEME
  % visual injury, Obs: 0%
[13]
  % visual injury, Obs: 0%
[14]
  % visual injury, Obs: 0%
[15]
  % visual injury, Obs: 0%
[16]
  % visual injury, Obs: 0%
[17]
  % visual injury, Obs: 0%
[18]
  % visual injury, Obs: 0%
[19]
  % visual injury, Obs: 0%
[20]
  % visual injury, Obs: 35%
